This note sets out measurements from PubChem BioAssay (NCI).

Some test systems named below: ACHN renal; COLO 205 colon; NCI/ADR-RES ovarian; OVCAR-5 ovarian; RPMI-8226 leukemia; SK-MEL-5 melanoma; SR leukemia; HL-60(TB) leukemia; SK-OV-3 ovarian; CCRF-CEM leukemia.
What all share (experiment): growth of human tumour cells (NCI), 48 h

Each structure is given as a SMILES string.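 Test compounds were applied to cells in 96-well plates for 48 hours at 5 doses. GI50 is the concentration that inhibits growth by half. The concentration for full growth arrest is given as TGI.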

`CC(=O)OC1CCC2(C)C(CCC3C2CC(=O)C2(C)C3CC(N3CC3)C2C(C)=O)C1` (stereo not given): the TGI in the test on ACHN renal is 29.6 µM; with COLO 205 colon, 35.7 µM; in the test with NCI/ADR-RES ovarian, 94.2 µM; in the test with OVCAR-5 ovarian, greater than 100 µM; in the test with RPMI-8226 leukemia it was 83.6 µM; in the test with SK-MEL-5 melanoma it was 32.3 µM. In the test with SR leukemia, the TGI came to 64.7 µM.
Turning to `CC1CCN(Cc2ccc(NC(=O)c3cc4ccc5cccnc5c4[nH]3)cc2)CC1`, the GI50 in the test on ACHN renal is 5.47 µM; in the test with HL-60(TB) leukemia, 3.16 µM; in the test on NCI/ADR-RES ovarian it was 17.3 µM; in the test with OVCAR-5 ovarian, 11.3 µM; with RPMI-8226 leukemia, 2.58 µM; with SK-OV-3 ovarian, 6.98 µM. The GI50 in the test with SR leukemia was 2.29 µM. For the same compound, the TGI turned out to be 23.1 µM in the test on ACHN renal; 13.1 µM with HL-60(TB) leukemia; 68.9 µM with NCI/ADR-RES ovarian; 35.3 µM with OVCAR-5 ovarian; 6.99 µM in the test on RPMI-8226 leukemia; 42.5 µM in the test on SK-OV-3 ovarian. In the test with SR leukemia, this compound gave a TGI of 6.65 µM.
With `C=C(CN1CCN(c2ccc(C(F)(F)F)cc2)CC1)c1ccc(C(=O)Nc2ccccc2N)cc1`, the GI50 is 9.64 µM in the test on ACHN renal; greater than 100 µM with COLO 205 colon; 0.0732 µM in the test on HL-60(TB) leukemia; 3.37 µM with NCI/ADR-RES ovarian; greater than 100 µM in the test on OVCAR-5 ovarian; 0.405 µM with RPMI-8226 leukemia. The GI50 was 4.43 µM with SK-MEL-5 melanoma, 12.1 µM with SK-OV-3 ovarian and 1.1 µM with SR leukemia. Moreover, the TGI in the test with ACHN renal was greater than 100 µM; in the test with COLO 205 colon, greater than 100 µM; in the test on HL-60(TB) leukemia it was 0.279 µM; in the test with NCI/ADR-RES ovarian, greater than 100 µM; with OVCAR-5 ovarian, greater than 100 µM; with SK-MEL-5 melanoma, greater than 100 µM. In addition, the TGI in the test on SK-OV-3 ovarian and with SR leukemia was greater than 100 µM each time.
For `Nc1c(C(=O)Nc2ccccc2)sc2nc3c(cc12)CCCCC3`, the GI50 with ACHN renal was 0.998 µM; with CCRF-CEM leukemia, 0.41 µM; in the test on HL-60(TB) leukemia, 0.319 µM; with NCI/ADR-RES ovarian, 0.507 µM; with OVCAR-5 ovarian it was 1.06 µM; in the test on RPMI-8226 leukemia it was 0.372 µM. Besides, the figures for the GI50 in the test on SK-MEL-5 melanoma, in the test on SK-OV-3 ovarian and in the test on SR leukemia were 0.353 µM, 0.633 µM and 0.337 µM, respectively. Further, the TGI in the test with ACHN renal was greater than 100 µM; with CCRF-CEM leukemia it was greater than 100 µM; with HL-60(TB) leukemia, 1.85 µM; in the test on NCI/ADR-RES ovarian, greater than 100 µM; with OVCAR-5 ovarian, greater than 100 µM; in the test with RPMI-8226 leukemia, 14.3 µM. Besides, the values for the TGI in the test on SK-MEL-5 melanoma, in the test with SK-OV-3 ovarian and in the test with SR leukemia were 5.2 µM, 10.8 µM and 15.2 µM, respectively.
On to `Oc1ccc(O)c(-c2cn3c(n2)SCC3)c1`, for which the GI50 with ACHN renal was 20.4 µM; with CCRF-CEM leukemia, 5.18 µM; with COLO 205 colon it was 17 µM; with NCI/ADR-RES ovarian, 17.2 µM; in the test on OVCAR-5 ovarian it was 17.5 µM; in the test with RPMI-8226 leukemia, 4.08 µM. The figures for the GI50 with SK-MEL-5 melanoma, in the test with SK-OV-3 ovarian and in the test with SR leukemia were 16.9 µM, 12.5 µM and 4.03 µM, respectively. Also, the TGI is 34.7 µM in the test on ACHN renal; greater than 100 µM with CCRF-CEM leukemia; 37.8 µM in the test on COLO 205 colon; 39.1 µM with NCI/ADR-RES ovarian; 33.3 µM with OVCAR-5 ovarian; greater than 100 µM in the test on RPMI-8226 leukemia. The TGI with SK-MEL-5 melanoma came out at 33 µM; with SK-OV-3 ovarian, 40.6 µM; with SR leukemia it was 10.4 µM.
In the case of `O=C(CCl)NCCNc1nccc(Nc2ccc(S(=O)(=O)Nc3ccccn3)cc2)n1`, the GI50 is 2.6 µM with ACHN renal; 2.19 µM with CCRF-CEM leukemia; 3.22 µM in the test on COLO 205 colon; 2.96 µM with NCI/ADR-RES ovarian; 2.28 µM with OVCAR-5 ovarian; 2.09 µM with RPMI-8226 leukemia. Further, the values for the GI50 with SK-MEL-5 melanoma, in the test on SK-OV-3 ovarian and in the test with SR leukemia were 1.53 µM, 4.67 µM and 2.45 µM, respectively. Besides, the TGI in the test on ACHN renal amounted to 10.8 µM; with CCRF-CEM leukemia, 9.03 µM; in the test with COLO 205 colon, 11.6 µM; in the test with NCI/ADR-RES ovarian, 83.2 µM; with OVCAR-5 ovarian, 5.1 µM; in the test with RPMI-8226 leukemia it was 7.6 µM. In addition, the results for the TGI with SK-MEL-5 melanoma, in the test on SK-OV-3 ovarian and with SR leukemia were 2.94 µM, 42.8 µM and 11.2 µM, respectively.
Regarding `COc1cccc(/C=C/C(=O)c2ccc(SC)cc2)c1OC`, the GI50 in the test on ACHN renal is 17.2 µM; in the test with CCRF-CEM leukemia, 14.2 µM; in the test on COLO 205 colon, 22.6 µM; in the test on NCI/ADR-RES ovarian it was 16.2 µM; in the test on OVCAR-5 ovarian, 18.7 µM; in the test on RPMI-8226 leukemia, 5.6 µM. The results for the GI50 in the test with SK-MEL-5 melanoma, in the test with SK-OV-3 ovarian and in the test with SR leukemia were 16.4 µM, 23.5 µM and 4.43 µM, respectively. For the same compound, the TGI in the test with ACHN renal was 33.7 µM; in the test with CCRF-CEM leukemia it was 97.5 µM; in the test with COLO 205 colon, 45 µM; in the test with NCI/ADR-RES ovarian, 38.5 µM; in the test on OVCAR-5 ovarian it was 34.2 µM; in the test on RPMI-8226 leukemia it was greater than 100 µM. For the same compound, the results for the TGI in the test with SK-MEL-5 melanoma, in the test with SK-OV-3 ovarian and in the test with SR leukemia were 30.3 µM, 40.6 µM and 79.5 µM, respectively.
For `O=S(=O)(CCN1CCOCC1)Nc1cc(-c2ccc3ncnc(Nc4ccc(F)c(Cl)c4)c3c2)cnc1Cl`, the GI50 in the test with ACHN renal was 0.735 µM; in the test on CCRF-CEM leukemia, 0.455 µM; with HL-60(TB) leukemia, 1.15 µM; in the test on NCI/ADR-RES ovarian, 5.63 µM; in the test on OVCAR-5 ovarian, 0.492 µM; in the test with SK-MEL-5 melanoma, 0.313 µM. In addition, the GI50 was 0.286 µM in the test on SK-OV-3 ovarian and 0.799 µM in the test on SR leukemia. For the same compound, the TGI in the test on ACHN renal is greater than 100 µM; in the test with CCRF-CEM leukemia it was greater than 100 µM; in the test with HL-60(TB) leukemia, 12.4 µM; in the test with NCI/ADR-RES ovarian it was greater than 100 µM; in the test on OVCAR-5 ovarian it was greater than 100 µM; in the test with SK-MEL-5 melanoma, 1.58 µM. In addition, the TGI in the test with SK-OV-3 ovarian was 1.94 µM; in the test with SR leukemia, 6.96 µM.
Regarding `CC(C)N1CCN(c2ccncc2S(=O)(=O)N2CCCCC2)CC1`, the TGI in the test on ACHN renal, in the test with COLO 205 colon, with HL-60(TB) leukemia, in the test on NCI/ADR-RES ovarian, in the test with OVCAR-5 ovarian and in the test on RPMI-8226 leukemia was greater than 100 µM throughout. The TGI in the test with SK-MEL-5 melanoma, in the test on SK-OV-3 ovarian and with SR leukemia was greater than 100 µM each time.
